From patent US11155558B2, “Dual mode of action soluble guanylate cyclase activators and phosphodiesterase inhibitors and uses thereof” (TOPADUR PHARMA AG, priority 2017, dated 2021)

Key:
[1] = Measurements of human plasma protein binding; assay type: in vitro ADME
Experimental: An aliquot of 200 μL of human plasma containing test compound was spiked into donor well (red chamber) of the insert. 350 μL of PBS was spiked into receiver well (white chamber) of the insert.
The samples were matrix equilibrated with opposite matrix (25 μL of plasma/buffer sample was matched with 25 μL of blank buffer/plasma). Matrix matched samples were precipitated with 200 μL of acetonitrile containing internal standard. Samples were vortexed at 1000 rpm for 5 min and centrifuged at 4000 rpm for 10 min. Supernatant was separated, diluted 2 fold with water and analysed in LC-MS/MS. TO control samples were processed immediately after the preparation of plasma working stock solutions. These samples serves as a measure for calculating the percentage recovery of test compounds.

[2] = system: Human Pulmonary Artery Smooth Muscle Cells (hPASMC); test: Measurements of cGMP in human pulmonary artery smooth muscle cells (hPASMC); assay type: cell-based; details: 30 min incubation, 0.1 pM-1 uM, compared to sildenafil, mirodenafil or compound 5 (FIG. 3)
Experimental: Human Pulmonary Artery Smooth Muscle Cells (hPASMC) were purchased from Clonetics™ Lonza (Lonza, reference number CC-2581) and cultured in Clonetics™ smooth muscle growth medium (Clonetics™ SmGM™-2 with BulletKit™ growth factor supplements (Lonza, reference number CC-3182) at 37° C. in 5% CO2. Culture medium was replaced each 48 hours. Cells were grown in 75 cm^2 culture plates. 48 h before the experiments, cells were trypsinized (Trypsin kit One ReagentPack™ (CC-5034), Lonza) and plated in 96 well plates precoated with collagen I at 10000 cells per well. 24 h before the experiments culture medium was replaced by serum-reduced (0.5% FBS) medium. […]
Measurements of intracellular cGMP were performed using the Amersham cGMP EIA System (GE Healthcare, RPN226) following the instructions of the manufacturer. […] Briefly, incubations were terminated by adding Amersham's lysis buffer 1 and cells left for 10 min under agitation to ensure complete lysis. cGMP in samples was then acetylated using triethylamine and acetic anhydride and determined by a competitive ELISA. The ELISA is based on the competition between acetylated cGMP in cell culture lysates and a peroxidase-labelled cGMP conjugate for limited binding sites on a cGMP specific antiserum immobilized on pre-coated 96 well MTP. cGMP was determined based on a standard curve. […]

[3] = molecular target: PDE5 enzyme isolated from human platelets (Homo sapiens (Human), UniProt O76074); test: PDE5 assay (Example 109), formation of 5′GMP from cGMP, SPA; details: for % inhibition at 5.0E−09 M: percent inhibition of control enzyme activity at 5.0E−09 M, assay of Example 109;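 on all read-outs here: tritiated 5′GMP counted by scintillation after SPA bead capture, enzyme reaction run 60 min at 22 °C, basal control is the mixture without enzyme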
Experimental: Evaluation of the effects of compounds of the present invention on the activity of the human phosphodiesterase-5 quantified by measuring the formation of 5′GMP from cGMP using PDE5 enzyme isolated from human platelets.
Thereafter, the reaction is initiated by addition of the enzyme and the mixture is incubated for 60 min at 22° C.
For basal control measurements, the enzyme is omitted from the reaction mixture. Following incubation SPA beads are added. After 20 min at 22° C. under shaking, the amount of [3H]5′GMP is quantified with a scintillation counter (Topcount, Packard).
The standard inhibitory reference compound is dipyridamole, which is tested in each experiment at several concentrations to obtain an inhibition curve from which its IC50 value is calculated.

SMILES	% Bound in Plasma [1]	fraction unbound [1]	recovery ([1]; human)	efficacy in increasing intracellular cGMP level [2]	IC50 [3]	% inhibition at 5.0E−09 M [3]
CCCOc1ccc(S(=O)(=O)N2CCC(CCO[N+](=O)[O-])CC2)cc1-c1nc2c(CCC)cn(CC)c2c(=O)[nH]1 [Compound 1b, 2-(1-((3-(5-ethyl-4-oxo-7-propyl-4,5-dihydro-3H-pyrrolo[3,2-d]pyrimidin-2-yl)-4-propoxyphenyl)sulfonyl)piperidin-4-yl)ethyl nitrate]	99.95%	0.0005	100%	significantly higher efficacy in increasing cGMP level	> 10 nM	12.4%
CCCOc1ccc(S(=O)(=O)N2CCN(CCO[N+](=O)[O-])CC2)cc1-c1nc2c(CCC)cn(CC)c2c(=O)[nH]1 [Compound 1i, 2-(4-((3-(5-ethyl-4-oxo-7-propyl-4,5-dihydro-3H-pyrrolo[3,2-d]pyrimidin-2-yl)-4-propoxyphenyl)sulfonyl)piperazin-1-yl)ethyl nitrate]				significantly higher efficacy in increasing cGMP level	2 nM	60.0%
